How the values were obtained:
[1] = target: CYP3A4 (Homo sapiens, UniProt P08684, S18F); assay: NADPH oxidation assay with CYP3A4 nanodisc and CPR; conditions: triplicate
[2] = system: IL-10; assay: IL-10 ELISA in LPS-stimulated BV2 microglial cells; type: cell-based; conditions: LPS-stimulated BV2, 1–5 μM
Method: (§1) The BV2 microglial cells were subjected to the treatment of LPS both in the absence and presence of CBN and its selected metabolites. The seeding density for this assay was 1 × 10^5 cells/well. The cells were initially treated with the molecules for 4 h before being stimulated with LPS (25 ng/mL). The NO assay was performed 24 h after the treatment with LPS. The NO assay was performed according to the manufacturer’s protocol, and NO levels were quantified using nitrate standard curves. For the assay, 50 μL of cell media was used in a 96-well plate, and the absorbance was recorded at 540 nm. All measurements were performed in n = 5.
(§2) ELISA assays of IL-6, IL-10 (Item No. 88–7105), and Arginase 1 were performed using the same supernatant with which we had completed the NO and LDH assays. The culture media was collected, and the IL-6 (Thermo Scientific) and Arginase 1 (abcam) assays were performed using the specific monoclonal antibodies as per the manufacturer’s instructions.

[3] = system: Arginase 1; assay: Arginase 1 ELISA in LPS-stimulated BV2 microglial cells; type: cell-based
Method: as §1, §2

[4] = system: NO; assay: NO levels in LPS-stimulated BV2 microglial cells; type: cell-based; conditions: for change in NO levels compared to cells with only LPS treatment: LPS-stimulated BV2, 1, 2.5 and 5 μM
Method: as §1

[5] = system: IL-6; assay: IL-6 ELISA in LPS-stimulated BV2 microglial cells; type: cell-based
Method: as §1, §2

[6] = target: CB2 receptor (Homo sapiens, UniProt P34972); assay: G protein nanoBRET assay, antagonist mode, CB2 receptor; conditions: 50 μM after pretreatment with 1 μM CP-55940
[7] = In vivo metabolism of CBN in female mice, plasma levels by targeted LC/MS/MS; set-up: species or system C57BL/6 mice; conditions: for CBN-11-OH formation relative to CBN-1′-OH / CBN-11-OH formation relative to CBN-quinone: 0.5 h, plasma
Method: Initially dissolved in ethanol, CBN was combined with a volume of Tween 80, constituting 6% of the total solution volume for injection. Ethanol was eliminated via vacuum evaporation, and saline was added to prepare a 4 mg/mL solution. CBN (20 mg/kg) or vehicle was administered to C57BL/6 mice intravenously (IV) through the retro-orbital sinus or intraperitoneally (IP) at the lower right quadrant of the abdomen. Animals were euthanized at 30- or 120 min postinjection. Blood samples, collected via cardiac puncture into heparin tubes, underwent cold centrifugation at 4500 rpm for 15 min to isolate plasma. Plasma and whole liver samples were flash-frozen at −80 °C for subsequent analysis. Our decision to use female mice for this experiment was based on the availability of age-matched mice in the colony at the time of the experiment.
Mice were anaesthetized with a 3% inhalant dose of isoflurane until their respiratory rate decreased to 50% of baseline (i.e., 40–60 breaths/min) and the righting reflex was abolished. Mice were subsequently removed from the induction chamber and laid on their side. Using the index finger and thumb of the nondominant hand, the skin above and below the eye was retracted until a slight protrusion from the socket was noted. A 29G1/2 needle was inserted, bevel down, into the medial canthus at an approximate 45-degree angle until slight resistance was noted. Volume was slowly infused at a rate of 15uL/second. The needle was subsequently removed from the eye socket, and ophthalmic ointment was added.
Animals were gently restrained by scruff, and the injection site at the lower right quadrant of the abdomen was identified. The needle was inserted at a 60-degree angle to the body, and the plunger was lightly withdrawn to ensure the needle was not in contact with viscera or organs before dispensing volume.
200 μL plasma samples were collected and used for extraction using 1 mL of Hexane: Ethyl acetate (8:2 v/v) following a similar protocol described above.
Samples were analyzed using the Sciex QTrap 6500+ system (Framingham, MA) with Waters Acquity I- class plus UPLC. Software Analyst 1.7.1 was used for data acquisition.
The LC separation was performed on a Waters Acquity UPLC BEH column (2.1 × 100 mm, 1.7 μm) with mobile phase A (0.1% formic acid in water) and mobile phase B (0.1% formic acid in acetonitrile). The flow rate was 0.5 mL/min unless noted otherwise. The linear gradient was as follows: 0–0.5 min, 70%A; 2 min, 20%A; 4–4.2 min, 0%A; 4.21–5.2 min, 0%A (0.8 mL/min); 5.3–6.9 min, 70%A. The autosampler was set at 10 °C, and the column was kept at 50 °C. The injection volume was 5 μL.
Mass spectra were acquired under positive electrospray ionization (ESI) with the ion spray voltage of 4500 V. The source temperature was 500 °C. The curtain gas, ion source gas 1, and ion source gas 2 were 32, 50, and 70 psi, respectively. Multiple reaction monitoring (MRM) was used for quantitation with the MRM transition of CBN (m/z 311.2 → m/z 269.1), CBN-1′–OH (m/z 327.2 → m/z 253.1), CBN-11-OH (m/z 327.2 → m/z 128.1), CBN-p-quinone (m/z 325.2 → m/z 283.1) and EPEA-d4 as internal standard (m/z 350.3 → m/z 66.1).

[8] = target: T1, CB1 receptor (Homo sapiens, UniProt P21554); assay: G protein nanoBRET assay, agonist mode, CB1 receptor; conditions: 10 μM, ΔBRET; confirmed by concentration–response, only at high concentrations
[9] = system: human liver microsomes; assay: CBN metabolism by human liver microsomes, metabolite formation rate; type: in vitro ADME; conditions: HLM, across different CBN concentrations
Method: We carried out concentration-dependent metabolism of CBN in the presence of 2 CYPs: 2C9 and 2D6. For the experiment, we used an enzyme concentration of 0.5 μM, reconstituted in the lipid system of POPC: POPS (8:2 v/v), and CPR at 0.6 μM dissolved in 0.1 M potassium phosphate buffer for CYP2C9. The substrate CBN was used in a range of 5–80 μM. The reaction mixture was incubated at 37 °C for 10 min, and then NADPH was added (1 mM), allowing the reaction to proceed for an additional 30 min. We quenched the reactions using a mixture of Hexane: Ethyl Acetate (8:2 v/v) and used the same composition to extract the CBN metabolites. We did a total extraction for three cycles. Following the extractions, the extractions were dried under a continuous stream of nitrogen, and the residual products were finally dissolved in 90% ethanol. We used CYP2D6 in a nanodisc for the metabolism of CBN. […] We carried out the same protocol for the metabolism of CBN using 1 μg of human liver microsome, CPR (0.6 μM) and NADPH (1 mM).
Samples were analyzed with the Sciex QTrap 6500+ system (Framingham, MA) with Waters Acquity I-class plus UPLC. Software Analyst 1.7.1 was used for data acquisition.
The LC separation was performed on a Waters Acquity UPLC BEH column (2.1 × 100 mm, […]) with mobile phase A (0.1% formic acid in water) and mobile phase B (0.1% formic acid in acetonitrile). The flow rate was 0.5 mL/min unless noted otherwise. […]
(§3) Mass spectra were acquired under positive electrospray ionization (ESI) with the ion spray voltage of 4500 V. The source temperature was 500 °C. […] Multiple reaction monitoring (MRM) was used for quantitation, as described in transitions CBN (m/z 311.2 → m/z 205.1), CBN-1′–OH (m/z 327.2 → m/z 253.1), CBN-11-OH (m/z 327.2 → m/z 291.1), CBN-p-quinone (m/z 325.2 → m/z 283.1) and CBC-d9 as internal standard (m/z 324.2→ m/z 202.1).
(§4) All data were analyzed using the software Skyline (daily version 22.2.1.278). […]

[10] = target: T2, CYP2D6 (Homo sapiens, UniProt P10635); assay: CYP2D6 (nanodisc)-mediated CBN metabolism, kinetics of metabolite formation; type: in vitro ADME
T2 construct: polyhistidine (inferred from Ni-NTA purification and histidine elution); made in house; host or cells: E. coli (inferred from the pCWori vector and lysozyme/spheroplast preparation)
Method: We carried out concentration-dependent metabolism of CBN in the presence of 2 CYPs: 2C9 and 2D6. For the experiment, we used an enzyme concentration of 0.5 μM, reconstituted in the lipid system of POPC: POPS (8:2 v/v), and CPR at 0.6 μM dissolved in 0.1 M potassium phosphate buffer for CYP2C9. The substrate CBN was used in a range of 5–80 μM. The reaction mixture was incubated at 37 °C for 10 min, and then NADPH was added (1 mM), allowing the reaction to proceed for an additional 30 min. We quenched the reactions using a mixture of Hexane: Ethyl Acetate (8:2 v/v) and used the same composition to extract the CBN metabolites. We did a total extraction for three cycles. […]
Samples were analyzed with the Sciex QTrap 6500+ system (Framingham, MA) with Waters Acquity I-class plus UPLC. […]
as §3, §4

[11] = target: T1, CB1 receptor; assay: G protein nanoBRET assay, antagonist mode, CB1 receptor; conditions: 50 μM after pretreatment with 1 μM CP-55940
[12] = system: DRG neurons; assay: Calcium responses of cultured DRG sensory neurons; type: cell-based; conditions: cultured mouse DRG neurons, 50 μM × 15 s
Method: 9 CBN and 11-OH CBN activate DRG neurons with similar response magnitudes but differ in their percentage of neurons activated and time to peak response. Calcium response traces of representative cultured mouse DRG neurons following application of CBN (A) and 11-OH CBN (B) 50 μM × 15 s (arrow). […] Mean value ± SEM (CBN: n = 59; 11-OH CBN: n = 29, two-tailed t test, Prism GraphPad).

[13] = substrate: CCCC[C@H](O)c1cc(O)c2c(c1)OC(C)(C)c1ccc(C)cc1-2; assay: not read; conditions: other: CYP2C9, CBN 5–80 μM
Method: (§5) For the experiment, we used an enzyme concentration of 0.5 μM, reconstituted in the lipid system of POPC: POPS (8:2 v/v), and CPR at 0.6 μM dissolved in 0.1 M potassium phosphate buffer for CYP2C9. […] The reaction mixture was incubated at 37 °C for 10 min, and then NADPH was added (1 mM), allowing the reaction to proceed for an additional 30 min. […] We did a total extraction for three cycles. Following the extractions, the extractions were dried under a continuous stream of nitrogen, and the residual products were finally dissolved in 90% ethanol.
(§6) The LC separation was performed on a Waters Acquity UPLC BEH column (2.1 × 100 mm, 1.7 μM) with mobile phase A (0.1% formic acid in water) and mobile phase B (0.1% formic acid in acetonitrile). The flow rate was 0.5 mL/min unless noted otherwise. The linear gradient was as follows: 0–0.5 min, 70%A; 2 min, 20%A; 4–4.2 min, 0%A; 4.21–5.2 min, 0%A (0.8 mL/min); 5.3–6.9 min, 70%A. The autosampler was set at 10 °C, and the column was kept at 50 °C. The injection volume was 5 μL.
(§7) All data were analyzed using the software Skyline (daily version 22.2.1.278). It includes raw data import, peak integration, and a linear regression fit with 1/×2 weighting for the calibration curves.

[14] = substrate: CCCCCC1=CC(=O)C2=C(OC(C)(C)c3ccc(C)cc32)C1=O; assay: not read; conditions: other: CYP2C9, CBN 5–80 μM
Method: as §5, §6, §7

Chain of CB2 receptor (P34972 whole entry): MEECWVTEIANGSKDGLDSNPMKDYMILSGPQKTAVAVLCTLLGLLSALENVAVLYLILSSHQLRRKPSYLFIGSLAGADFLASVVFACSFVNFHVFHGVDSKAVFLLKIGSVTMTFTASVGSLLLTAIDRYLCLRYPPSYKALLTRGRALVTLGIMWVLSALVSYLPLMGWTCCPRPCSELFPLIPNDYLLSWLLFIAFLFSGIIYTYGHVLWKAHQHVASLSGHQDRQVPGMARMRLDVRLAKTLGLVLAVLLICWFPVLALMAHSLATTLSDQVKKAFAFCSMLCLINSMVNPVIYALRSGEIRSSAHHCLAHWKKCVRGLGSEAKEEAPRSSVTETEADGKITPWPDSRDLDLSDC
T2 sequence (P10635 with tags, fused parts or gaps limits assumed): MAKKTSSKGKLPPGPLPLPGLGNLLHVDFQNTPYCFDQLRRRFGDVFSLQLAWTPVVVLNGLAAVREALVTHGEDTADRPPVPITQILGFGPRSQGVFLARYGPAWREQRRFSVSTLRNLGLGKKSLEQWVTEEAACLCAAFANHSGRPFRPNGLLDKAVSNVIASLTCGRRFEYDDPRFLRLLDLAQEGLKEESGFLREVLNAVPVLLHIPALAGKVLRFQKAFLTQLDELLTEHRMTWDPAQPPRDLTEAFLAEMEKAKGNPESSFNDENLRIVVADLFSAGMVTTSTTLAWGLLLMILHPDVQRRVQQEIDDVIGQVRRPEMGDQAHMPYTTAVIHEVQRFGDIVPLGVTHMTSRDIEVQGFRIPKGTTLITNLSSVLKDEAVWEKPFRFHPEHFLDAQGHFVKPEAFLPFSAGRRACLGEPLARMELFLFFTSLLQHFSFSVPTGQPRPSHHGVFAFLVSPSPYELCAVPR
T1 sequence (P21554 whole entry): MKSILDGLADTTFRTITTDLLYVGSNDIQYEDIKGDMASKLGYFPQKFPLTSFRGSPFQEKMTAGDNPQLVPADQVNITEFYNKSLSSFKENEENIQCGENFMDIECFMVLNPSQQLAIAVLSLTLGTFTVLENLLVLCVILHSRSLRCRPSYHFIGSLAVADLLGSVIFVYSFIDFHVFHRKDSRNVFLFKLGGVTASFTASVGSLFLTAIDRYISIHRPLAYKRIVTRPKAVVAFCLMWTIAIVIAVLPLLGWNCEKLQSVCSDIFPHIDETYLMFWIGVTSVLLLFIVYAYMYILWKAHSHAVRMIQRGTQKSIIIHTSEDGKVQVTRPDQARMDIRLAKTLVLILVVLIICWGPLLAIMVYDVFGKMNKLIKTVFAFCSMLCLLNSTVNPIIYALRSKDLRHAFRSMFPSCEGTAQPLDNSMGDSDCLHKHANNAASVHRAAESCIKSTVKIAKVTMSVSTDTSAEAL
Chain of CYP3A4 (P08684 with tags, fused parts or gaps S18F limits assumed): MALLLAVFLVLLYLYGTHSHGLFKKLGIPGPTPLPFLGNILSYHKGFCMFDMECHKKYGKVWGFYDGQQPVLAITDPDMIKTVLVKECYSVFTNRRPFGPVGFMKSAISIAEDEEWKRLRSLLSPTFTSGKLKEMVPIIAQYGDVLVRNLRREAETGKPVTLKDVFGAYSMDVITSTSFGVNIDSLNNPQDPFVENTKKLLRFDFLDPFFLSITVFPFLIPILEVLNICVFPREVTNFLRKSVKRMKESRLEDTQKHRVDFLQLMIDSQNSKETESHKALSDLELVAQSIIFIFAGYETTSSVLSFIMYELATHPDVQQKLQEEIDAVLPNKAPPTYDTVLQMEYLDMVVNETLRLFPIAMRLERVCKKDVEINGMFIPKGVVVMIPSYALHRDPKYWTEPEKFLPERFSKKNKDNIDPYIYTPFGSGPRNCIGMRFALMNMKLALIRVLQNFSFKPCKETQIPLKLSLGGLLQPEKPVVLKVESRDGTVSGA

CC(C)C[C@H]1C(=O)N2CCC[C@H]2[C@]2(O)O[C@](NC(=O)[C@@H]3C=C4c5cccc6[nH]c(Br)c(c56)C[C@H]4N(C)C3)(C(C)C)C(=O)N12 [Bromocriptine, reference compound]
rate of NADPH oxidation in the presence of the compound [1]: 60.788±19.569 nmol/min/nmol

CCCC[C@H](O)c1cc(O)c2c(c1)OC(C)(C)c1ccc(C)cc1-2 [CBN-1′–OH, 3-(1-hydroxypentyl)-6,6,9-trimethyl-6H-benzo[c]chromen-1-ol]
IL-10 levels [2]: reversed
Arginase1 levels [3]: slight increase in Arginase1 levels
change in NO levels compared to cells with only LPS treatment [4]: no detectable significant (ns) change
IL-6 production ([5]; LPS-stimulated BV2, concentration not stated): decrease in IL-6 production
inhibition of CB2 receptor [6]: inverse agonist effect
reduction of plasma level between 0.5 and 2 h ([7]; IV administration of CBN): 3 fold
agonist effect at CB1 receptor, Gαo activation [8]: partial agonist effect
rate of metabolite formation from CBN [9]: 9–9.4 × 10^3 pmol/min/nmol
formation of metabolite by CYP2D6 [10]: did not detect the formation

CCCCCc1cc(O)c2c(c1)OC(C)(C)c1ccc(CO)cc1-2 [CBN-11-OH, cannabinol-11-hydroxy]
IL-10 levels [2]: concentration-dependent increase in IL-10 levels
inhibition of CB1 activation [11]: complete ablation of the BRET signal
Arginase1 levels [3]: mixed results
production of NO ([4]; LPS-stimulated BV2, 5 μM): slightly lower production of NO
change in NO levels compared to cells with only LPS treatment [4]: no detectable significant (ns) change
IL-6 levels ([5]; LPS-stimulated BV2, 5 μM): reduction in IL-6 levels
inhibition of CB2 receptor [6]: complete inhibition
reduction of plasma level between 0.5 and 2 h ([7]; IP administration of CBN): 2 fold
reduction of plasma level between 0.5 and 2 h ([7]; IV administration of CBN): 3 fold
CBN-11-OH formation relative to CBN-1′-OH ([7]; IV): ~89 times
CBN-11-OH formation relative to CBN-quinone ([7]; IV): ~55 times
CBN-11-OH formation relative to CBN-1′-OH ([7]; i.p.): ~82 fold
CBN-11-OH formation relative to CBN-quinone ([7]; i.p.): ~90 fold
rate of metabolite formation from CBN [9]: ≤ 3.4 × 10^4 pmol/min/nmol
Ca2+ response (%) [12]: 31.6 ± 2.8%
DRG neuron activation (%) [12]: 5.4 ± 1.1%
Response Time [12]: 22.8 ± 2.2 s
[Ca2+]i responses, peak values [12]: 31.6 ± 2.8%
percentage of DRG neurons activated [12]: 5.4 ± 1.1%
time to peak response [12]: 22.8 ± 2.2 s

CCCCCC1=CC(=O)C2=C(OC(C)(C)c3ccc(C)cc32)C1=O [CBN-quinone, 6,6,9-Trimethyl-3-pentyl-1H-benzo[c]chromene-1,4(6H)-dione]
inhibition of CB2 receptor [6]: partial inhibition
reduction of plasma level between 0.5 and 2 h ([7]; IV administration of CBN): 9 fold
rate of metabolite formation from CBN [9]: further down by approximately three times the value of CBN-1′–OH
Vmax of metabolite formation from CBN ([10]; CBN 5–80 μM): 5.6 pmol/min/nmol

B1: CYP2C9 (Homo sapiens) (protein)
chain: MDSLVVLVLCLSCLLLLSLWRQSSGRGKLPPGPTPLPVIGNILQIGIKDISKSLTNLSKVYGPVFTLYFGLKPIVVLHGYEAVKEALIDLGEEFSGRGIFPLAERANRGFGIVFSNGKKWKEIRRFSLMTLRNFGMGKRSIEDRVQEEARCLVEELRKTKASPCDPTFILGCAPCNVICSIIFHKRFDYKDQQFLNLMEKLNENIKILSSPWIQICNNFSPIIDYFPGTHNKLLKNVAFMKSYILEKVKEHQESMDMNNPQDFIDCFLMKMEKEKHNQPSEFTIESLENTAVDLFGAGTETTSTTLRYALLLLLKHPEVTAKVQEEIERVIGRNRSPCMQDRSHMPYTDAVVHEVQRYIDLLPTSLPHAVTCDIKFRNYLIPKGTTILISLTSVLHDNKEFPNPEMFDPHHFLDEGGNFKKSKYFMPFSAGKRICVGEALAGMELFLFLTSILQNFNLKSLVDPKNLDTTPVVNGFASVPPFYQLCFIPV
Km [13]: 2.3 µM
kcat [13]: 12.1 pmol/min/nmol
Km [14]: 2.5 µM
kcat [14]: 4.4 pmol/min/nmol

— article PMC12257535, “Distinct Interactions of Cannabinol and Its Cytochrome P450-Generated Metabolites with Receptors and Sensory Neurons” (Journal of Medicinal Chemistry, 2025)
